Molecules are shown by their SMILES.

What all share (format): in vivo
Test [1] deals with Plasmopara viticola. Put plainly: Grape vine downy mildew (VDM) control test. Conditions: Table 9: monosaccharide 10% liquid preparation, no assistant, 10-fold dilution (monosaccharide 1%).
Test [2] relates to Sphaerotheca cucurbitae. In words: Cucumber powdery mildew (CPM) control test. Conditions: Table 9: monosaccharide 10% liquid preparation, no assistant, 10-fold dilution (monosaccharide 1%).
For test [3], the system named is Phytophthora infestans. Conditions: Table 9: monosaccharide 10% liquid preparation, no assistant, 10-fold dilution (monosaccharide 1%).
Test [4] has as its system Botrytis cinerea. In words: Tomato gray mold (GM) control test. Conditions: Table 9: monosaccharide 10% liquid preparation, no assistant, 10-fold dilution (monosaccharide 1%). The protocol:
(GM: Gray Mold) Test plants (tomato variety: Oogata Fukuju) were planted followed by cultivating until three first leaves appeared. In the test, dilutions (5 ml/pot) obtained by diluting with distilled water so that each formula reached a prescribed concentration were sprayed. After inoculating the seedlings one day after spraying by spraying with 1×10^7 organisms/ml of conidia of Botrytis cinerea, the seedlings were allowed to stand for about 48 hours in an inoculation room at a room temperature of 20° C. to 23° C. to promote the onset of disease. Disease development was investigated 2 days after inoculation, and the effects thereof were evaluated. Disease development was evaluated using the following indicators for disease control tests evaluated according to the methods described above. Furthermore, preventive values were calculated based on the disease development.

Test [5] deals with Magnaporthe grisea. Conditions: Table 9: monosaccharide 10% liquid preparation, no assistant, 10-fold dilution (monosaccharide 1%).
Test [6] relates to Venturia inaequalis. Put plainly: Apple scab (AS) control test. Conditions: Table 9: monosaccharide 10% liquid preparation, no assistant, 10-fold dilution (monosaccharide 1%). The protocol: (AS: Apple Scab) Test plants (apple variety: Ohrin) were planted followed by cultivating until four first leaves appeared. In the test, dilutions (5 ml/pot) obtained by diluting with distilled water so that each formula reached a prescribed concentration were sprayed. After inoculating the seedlings one day after spraying by spraying with 1×10^5 organisms/ml of conidia of Venturia inaequalis, the seedlings were allowed to stand for about 24 hours in an inoculation room at a room temperature of 18° C. to 20° C. to promote the onset of disease. Disease development was investigated 10 days after inoculation, and the effects thereof were evaluated. Disease development was evaluated using the following indicators for disease control tests evaluated according to the methods described above. Furthermore, preventive values were calculated based on the disease development.

In test [7] the test system is Rhizoctonia solani AGI-IA. Put plainly: Rice sheath blight (SB) control test. Conditions: Table 9: monosaccharide 10% liquid preparation, no assistant, 10-fold dilution (monosaccharide 1%). The protocol: (SB: Sheath Blight) Test plants (rice variety: Sachikaze) were planted followed by cultivating until the third leaf appeared. In the test, dilutions (5 ml/pot) obtained by diluting with distilled water so that each formula reached a prescribed concentration were sprayed. After inoculating the seedlings one day after spraying with clumps of Rhizoctonia solani AGI-IA cultured for 14 days in oat medium, the seedlings were allowed to stand for about 24 hours in an inoculation room at a room temperature of 28° C. to promote the onset of disease. Disease development was investigated 14 days after inoculation, and the effects thereof were evaluated. Disease development was evaluated using the following indicators for disease control tests evaluated according to the methods described above. Furthermore, preventive values were calculated based on the disease development.

Test [8] has as its system Pseudoperonospora cubensis. In words: Cucumber downy mildew (CDM) control test. Conditions: Table 8: D-tagatose liquid preparation with assistant (5 parts), 10-fold dilution (D-tagatose 0.5%+assistant 0.5%); improvement vs D-tagatose only.
In test [9] the test system is Ralstonia solanacearum. Conditions: Table 9: monosaccharide 10% liquid preparation, no assistant, 10-fold dilution (monosaccharide 1%).

Regarding `OC[C@H]1OC(O)[C@H](O)[C@H](O)[C@@H]1O` (stereo partly drawn) [D-allose], the “preventive value VDM” value in [1] was “(40)”. For the same molecule, the “preventive value CPM” value in [2] is reported as “(17)”. Further, in [3], the “preventive value LB” value is listed as “(60)”. In test [4], the “preventive value GM” value is on record as “(33)”. Further, the “preventive value B” value in test [5] is “(40)”. Moreover, in [6], the “preventive value AS” value is “(66)”. In addition, the “preventive value SB” value in [7] was “(60)”.

For the molecule `O=C(CO)[C@H](O)[C@@H](O)[C@@H](O)CO` [L-fructose], the “preventive value VDM” value in [1] is on record as “(0)”. Moreover, in test [2], the “preventive value CPM” value is “(33)”. In addition, the “preventive value GM” value in test [4] is “(40)”. In test [5], the “preventive value B” value was “(0)”. Also, the “preventive value SB” value in [7] is reported as “(60)”.

As to `O=C(CO)[C@H](O)[C@H](O)[C@H](O)CO` [D-psicose], in [8], the “Evaluation Score CDM” value is reported as 3 (Improvement in preventive value of 20 to less than 30). Besides, in test [1], the “preventive value VDM” value is “(0)”. Besides, the “preventive value CPM” value in [2] is on record as “(17)”. Further, the “preventive value LB” value in test [3] was “(47)”. Further, the “preventive value GM” value in [4] is “(50)”. Also, in test [5], the “preventive value B” value is recorded as “(50)”. The “preventive value AS” value in [6] is listed as “(50)”. In addition, the “preventive value SB” value in test [7] was “(40)”.

In the case of `O=C[C@H](O)[C@@H](O)[C@@H](O)[C@H](O)CO` [D-galactose], the “Evaluation Score CDM” value in [8] is 1 (Improvement in preventive value of 1 to less than 10). For the same molecule, in test [1], the “preventive value VDM” value is “(0)”. In addition, the “preventive value CPM” value in [2] was “(0)”. The “preventive value LB” value in [3] is reported as “(0)”. In test [4], the “preventive value GM” value is reported as “(33)”. Also, the “preventive value B” value in [5] is “(17)”. In test [6], the “preventive value AS” value was “(66)”. Further, the “preventive value SB” value in test [7] is reported as “(60)”. The “preventive value TBW” value in test [9] is given as “(25)”.

Turning to `O=C(CO)[C@H](O)[C@@H](O)[C@H](O)CO` [D-sorbose], the “Evaluation Score CDM” value in test [8] was 2 (Improvement in preventive value of 10 to less than 20). Moreover, the “preventive value VDM” value in [1] was “(0)”. Further, the “preventive value CPM” value in test [2] is given as “(17)”. Besides, the “preventive value LB” value in test [3] is “(33)”. Besides, the “preventive value GM” value in [4] is “(33)”. Besides, in test [5], the “preventive value B” value is listed as “(17)”. Also, the “preventive value AS” value in test [6] is on record as “(33)”. Also, the “preventive value SB” value in [7] is reported as “(40)”.

The values above are taken from patent US9861099B2, “Composition for enhancing plant disease control effect of monosaccharide” (MITSUI CHEMICALS AGRO, INC., priority 2013, dated 2018).
